The values that follow come from US8618289B2 (Ambit Biosciences Corporation, priority 2008, dated 2013).

Experiment [1] concerns MEK1 phosphorylation in the A375 human melanoma cell line. The experiment is described as follows: cells. As to conditions: A-375, read-out: pMEK IC50.
A further experiment has as its system A375 cells. The experiment is described as follows: cells. The conditions noted are these: Homo sapiens, A-375, read-out: A375 Viability EC50.
For experiment [2], the target named is RAF kinases (Homo sapiens, UniProt P04049). Kind of experiment: biochemical.
Chain of RAF kinases (Homo sapiens, UniProt P04049) (P04049 whole entry): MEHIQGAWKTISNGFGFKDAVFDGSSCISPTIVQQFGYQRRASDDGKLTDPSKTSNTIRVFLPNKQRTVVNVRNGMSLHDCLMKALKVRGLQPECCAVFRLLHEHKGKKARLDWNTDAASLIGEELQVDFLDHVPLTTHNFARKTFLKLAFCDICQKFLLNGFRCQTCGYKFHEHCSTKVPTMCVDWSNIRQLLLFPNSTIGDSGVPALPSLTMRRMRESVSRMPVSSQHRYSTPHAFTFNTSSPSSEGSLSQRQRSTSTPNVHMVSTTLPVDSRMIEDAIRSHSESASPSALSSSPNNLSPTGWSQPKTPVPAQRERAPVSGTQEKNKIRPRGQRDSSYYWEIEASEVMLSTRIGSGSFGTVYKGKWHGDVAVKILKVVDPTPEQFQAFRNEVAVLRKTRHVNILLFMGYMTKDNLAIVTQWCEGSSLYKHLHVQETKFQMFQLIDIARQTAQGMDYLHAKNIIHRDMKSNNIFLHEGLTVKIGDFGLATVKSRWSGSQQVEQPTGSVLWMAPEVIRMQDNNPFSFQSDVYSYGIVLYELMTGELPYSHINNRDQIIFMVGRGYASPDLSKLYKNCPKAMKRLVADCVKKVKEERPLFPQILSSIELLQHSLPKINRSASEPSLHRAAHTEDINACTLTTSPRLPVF
Experiment [3] concerns the target RAF kinases (Homo sapiens, UniProt P15056). The experiment is described as follows: biochemical.
Experiment [4] has as its target RAF kinases (Homo sapiens, UniProt P15056, V600E). The experiment is described as follows: biochemical.

Broadly, the IC50 is the point on the concentration scale where inhibition reaches its midpoint. The term EC50 denotes the concentration needed to bring the measured effect to its halfway point. Usually Kd stands for the equilibrium constant for the complex coming apart. A high value points to weaker binding.

Chain of RAF kinases (Homo sapiens, UniProt P15056, V600E) (P15056 whole entry V600E): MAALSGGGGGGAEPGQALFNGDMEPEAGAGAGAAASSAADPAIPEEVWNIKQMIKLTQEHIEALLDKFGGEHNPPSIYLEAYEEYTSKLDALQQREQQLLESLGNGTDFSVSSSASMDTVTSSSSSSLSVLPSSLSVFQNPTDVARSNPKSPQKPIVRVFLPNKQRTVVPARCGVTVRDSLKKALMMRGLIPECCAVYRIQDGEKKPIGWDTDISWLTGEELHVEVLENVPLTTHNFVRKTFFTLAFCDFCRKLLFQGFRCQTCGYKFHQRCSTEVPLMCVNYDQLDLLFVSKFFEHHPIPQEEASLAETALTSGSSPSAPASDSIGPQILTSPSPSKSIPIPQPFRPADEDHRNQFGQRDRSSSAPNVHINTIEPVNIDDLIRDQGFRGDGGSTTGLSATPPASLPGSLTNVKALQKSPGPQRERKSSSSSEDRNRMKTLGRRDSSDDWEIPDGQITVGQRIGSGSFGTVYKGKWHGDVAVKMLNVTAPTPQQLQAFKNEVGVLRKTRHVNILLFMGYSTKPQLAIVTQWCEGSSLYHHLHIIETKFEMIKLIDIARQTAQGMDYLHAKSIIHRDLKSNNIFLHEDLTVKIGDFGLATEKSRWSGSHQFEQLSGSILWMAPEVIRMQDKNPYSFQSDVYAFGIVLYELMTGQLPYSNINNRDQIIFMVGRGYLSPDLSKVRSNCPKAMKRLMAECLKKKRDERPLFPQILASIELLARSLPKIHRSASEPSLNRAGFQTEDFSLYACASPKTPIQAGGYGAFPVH
Chain of RAF kinases (Homo sapiens, UniProt P15056) (P15056 whole entry): as the sequence (P15056 whole entry V600E) above, with E600V counted along it

Regarding `COCCOc1cc2ncnc(Sc3cccc(NC(=O)Nc4cccc(C(C)(C)C#N)c4)c3)c2cc1OC` [Ex 281, 1-(3-(2-cyanopropan-2-yl)phenyl)-3-(3-(6-methoxy-7-(2-methoxyethoxy)quinazolin-4-ylthio)phenyl)urea], in experiment [1], the IC50 fell in the range of 250 to 500 nM. In addition, the EC50 in the experiment on A375 cells is more than 1000 nM. Also, the Kd at RAF kinases [2], at RAF kinases [3] and at RAF kinases [4] was less than 250 nM in each case.
`CCOc1cc2c(Oc3cccc(NC(=O)Nc4cc(C(F)(F)F)nn4-c4ccccc4)c3)ncnc2cc1OC` [Ex 391, 1-(3-(6-ethoxy-7-methoxyquinazolin-4-yloxy)phenyl)-3-(1-phenyl-3-(trifluoromethyl)-1H-pyrazol-5-yl)urea]: in experiment [1], the IC50 was less than 250 nM. In the experiment on A375 cells, the EC50 is less than 250 nM. Besides, the Kd at RAF kinases [2] was 250 to 500 nM; at RAF kinases [3], 250 to 500 nM; at RAF kinases [4], less than 250 nM.
For the compound `COCCOc1cc2ncnc(Oc3cccc(NC(=O)Nc4cc(C(C)(C)COC)on4)c3)c2cc1OC` [Ex 217, 1-(5-(1-methoxy-2-methylpropan-2-yl)isoxazol-3-yl)-3-(3-(6-methoxy-7-(2-methoxyethoxy)quinazolin-4-yloxy)phenyl)urea], in experiment [1], the IC50 was in the range of 250 to 500 nM. In addition, the EC50 with A375 cells was more than 1000 nM. In addition, the Kd was 250 to 500 nM at RAF kinases [2], 250 to 500 nM at RAF kinases [3] and less than 250 nM at RAF kinases [4].
For `COCCOc1cc2ncnc(Oc3cccc(NC(=O)Nc4cc(C(C)(F)F)no4)c3)c2cc1OC` [Ex 211, 1-(3-(1,1-difluoroethyl)isoxazol-5-yl)-3-(3-(6-methoxy-7-(2-methoxyethoxy)quinazolin-4-yloxy)phenyl)urea], in experiment [1], the IC50 was more than 1000 nM. In addition, the EC50 in the experiment with A375 cells is more than 1000 nM. Moreover, the Kd was in the range of 250 to 500 nM on RAF kinases [2], 500 to 1000 nM on RAF kinases [3] and 250 to 500 nM on RAF kinases [4].
Turning to `COc1cc2ncnc(Oc3cccc(NC(=O)Nc4cc(C(C)(C)F)no4)c3)c2cc1OCCCS(C)(=O)=O` [Ex 42, 1-(3-(2-fluoropropan-2-yl)isoxazol-5-yl)-3-(3-(7-methoxy-6-(3-(methylsulfonyl)propoxy)quinazolin-4-yloxy)phenyl)urea], the IC50 in experiment [1] was 250 to 500 nM. Further, in the experiment on A375 cells, the EC50 lay within 500 to 1000 nM. In addition, the equilibrium dissociation constant (Kd) on RAF kinases [2], at RAF kinases [3] and at RAF kinases [4] was less than 250 nM throughout.
With `COc1cc2ncnc(Oc3cccc(NC(=O)Nc4cc(C(C)(C)F)no4)c3)c2cc1OC` [Ex 126, 1-(3-(6,7-dimethoxyquinazolin-4-yloxy)phenyl)-3-(3-(2-fluoropropan-2-yl)isoxazol-5-yl)urea], in experiment [1], the IC50 was less than 250 nM. For the same compound, the EC50 with A375 cells lay within 500 to 1000 nM. Moreover, the Kd is less than 250 nM at RAF kinases [2], 250 to 500 nM at RAF kinases [3] and less than 250 nM on RAF kinases [4].
Consider `COCCOc1cc2ncnc(Oc3cccc(NC(=O)Nc4cc(C(F)(F)F)nn4-c4ccccc4)c3)c2cc1OC` [Ex 221, 1-{3-[6-methoxy-7-(2-methoxyethoxy)quinazolin-4-yloxy]phenyl}-3-[1-phenyl-3-(trifluoromethyl)-1H-pyrazol-5-yl]urea], for which the IC50 in experiment [1] was 250 to 500 nM. Moreover, the EC50 in the experiment on A375 cells is 500 to 1000 nM. The Kd at RAF kinases [2] is more than 1000 nM; at RAF kinases [3], more than 1000 nM; on RAF kinases [4], 250 to 500 nM.
For the compound `COc1cc2ncnc(Oc3cccc(NC(=O)Nc4cc(C5(C(F)(F)F)CC5)nn4-c4ccccc4)c3)c2cc1OC` [Ex 137, 1-(3-(6,7-dimethoxyquinazolin-4-yloxy)phenyl)-3-(1-phenyl-3-(1-(trifluoromethyl)cyclopropyl)-1H-pyrazol-5-yl)urea], in experiment [1], the IC50 was less than 250 nM. In addition, the EC50 in the experiment on A375 cells is 500 to 1000 nM. The Kd at RAF kinases [2] is more than 1000 nM; at RAF kinases [3], more than 1000 nM; at RAF kinases [4], 500 to 1000 nM.
Take `COc1cc2ncnc(Oc3cccc(NC(=O)Nc4cc(C(C)(CF)CF)no4)c3)c2cc1OC` [Ex 159, 1-[3-(1,3-difluoro-2-methylpropan-2-yl)isoxazol-5-yl]-3-[3-(6,7-dimethoxyquinazolin-4-yloxy]phenyl)urea]: the IC50 in experiment [1] is 250 to 500 nM. The EC50 with A375 cells is more than 1000 nM. The values for the Kd at RAF kinases [2], on RAF kinases [3] and on RAF kinases [4] were 500 to 1000 nM, 500 to 1000 nM and 250 to 500 nM, respectively.
